Experimental data taken from US20260325500A1, “METHODS AND COMPOSITIONS FOR TREATING ACUTE STRESS DISORDER” (BioXcel Therapeutics, Inc., priority 2022, published 2026).
Structures can show the parent of a compound that is named as a salt. Marks after values point to notes of the source that are not given here.

Assays:
[1] = tested on: rat forced swim test model (depressive-like behavior); assay: Forced swim test in dark phase (Example 4); type: in vivo, Sprague Dawley rats; conditions: 30 mg/kg, p.o.; versus vehicle saline, 5 minutes observation
Text: Animal groups: Male Sprague Dawley (SD) rats (8-10 weeks old) were grouped housed 2 per cage in standard animal cages with facilities for pelleted food and drinking water in polycarbonate bottle with stainless steel sipper tubes. During the experimental period, animals were housed in a single experimental room. Rats were distributed in 7 different experimental groups with 9-12 rats per group as illustrated in Table 8. Animals were distributed to different groups based on body weight data. Each experimental group was also coded so that the experimenter became unaware of the true experimental group at the time FST trial.
Animals were housed in an environment-controlled room at 22±3° C. and relative humidity of 30 to 70 percent. During the study, 12/12 light/dark cycles were maintained. Lights of the acclimatization area were switched off at 06:00 PM. All experiments were carried out at ambient temperature under dark phase of lighting (between 06:00 PM to 06:00 AM). Adequate fresh air supply of 12-15 air changes/hour was maintained in the experimental room. The maximum and minimum temperature and relative humidity in the experimental rooms was recorded once daily. The relative humidity in the experimental room was calculated daily from dry and wet bulb temperature recordings.
Swim 1 was carried out between 18:30 to 21:30.
Swim 2 was carried out between 19:30 to 21:30. Animals were administered test compounds from 18:30 onwards in staggered manner 60 minutes before FST 2.
Forced swim test was carried out in dark phase
On Day 1, animals were subjected to forced swim test training for 15 minutes (Swim 1) and on Day 2, Swim 2 was carried out post treatment.
On day 2 animals were dosed with respective treatment 60 min prior to performing FST.
Forced swim test (Swim 2) was scored manually with no video recording.
Forced swim test (FST), was used to study the depressive-like behavior in rodents. The test was carried out in transparent cylindrical glass containers measuring 46 cm in height and 20 cm in diameter.
There were 2 swim sessions, 24 h apart. The first session, Swim 1 was the pretest/training stage (15 min) and the second session, Swim 2, was the test stage (8 min).
In swim 2, first 1-minute data was excluded from analysis and rest 7 minutes data was considered. In 7 minutes, data, it was divided 5 minutes and 2 minute.
Twenty-four hours after the start of Swim 1, the test swim (Swim 2) was carried out.
Rat was placed in the water-filled cylinder for 8 min (Swim 2).
The duration of time spent immobile, swimming, and climbing was observed by an observer blind to the treatment group.
Immobility period: A rat was judged to be immobile when it remained floating in the water without struggling and was making only those movements necessary to keep its head above water.
Statistical analysis: One Way ANOVA, Dunnet's multiple comparison test was applied with respect to vehicle saline and Tukey's multiple comparison test was applied to compare the data in between the groups using GraphPad Prism version 9 software.

[2] = tested on: mouse behavior (SmartCube signature); assay: SmartCube system behavioral classification (Example 6); type: in vivo, Male C57/B16 mice; conditions: IP
Text: Dexmedetomidine and latrepirdine have anti-psychotic effects, when tested in the SmartCube® system (Psychogenics, Inc., Paramus, NJ; See also U.S. Pat. No. 7,580,798 incorporated herein by reference in its entirety). This system uses features derived from mouse behavioral data to first, classify mice on compound versus vehicle. This measure indicates how well the system can differentiate between a mouse on compound versus a mouse on vehicle. Secondly, by comparing the features to a proprietary reference database of behavioral feature sets that are linked to classes of marketed drugs known to treat neuro-psychiatric symptoms SmartCube® assigns a signature to the behavior. Thus, the system can be used as a model to identify both the activity and the psychiatric effect of a compound by comparing the effects of the compounds against drugs with known validated effects.
By comparing the responses of animals to known drugs, the test drug can be categorized according to its function; for example, hallucinogen, anxiogenic, analgesic, cognitive enhancer, psychostimulant, mood stabilizer, high dose anti-psychotic, anti-psychotic, sedative/hypnotic, anxiolytic, high dose antidepressant, antidepressant.
Once all features are extracted from the raw data through an automated pipeline, proprietary bioinformatics algorithms are used to decorrelate groups of features and find the combination of values that best separate different groups of interest. For each compound, at each dose, they system provides a probability that the drug is active and breaks down such putative activity into the different classes of interest.
SmartCube reference data used herein include anti-psychotics and anti-depressants tested at several dose ranges. “Anti-psychotic” versus “high dose anti-psychotic” as indicated in the legend, reflects the notion that anti-psychotics reference data is dose dependent. Anti-psychotics, when administered at higher doses, can engage additional receptor systems, and thus affect mouse behavior differently. The same applies for different doses of anti-depressants.
Animals: Male C57/B16 mice (N=12 per group) from Taconic Laboratories were used. Upon receipt, mice were group-housed in OPTI mouse ventilated cages with 4 mice per cage. Mice were acclimated to the colony room for at least one week prior to test and subsequently tested at approximately 8-9 weeks of age. All animals were examined, handled, and weighed prior to initiation of the study to assure adequate health and suitability and to minimize non-specific stress associated with manipulation.
All compounds tested were formulated in NP3 (vehicle solution): 5% Pharmasolve; 30% P3 (1:1:1 PEG200: PEG400: propylene glycol); 65% saline; pH is 5.1-6.
Test groups were: • Vehicle: NP3 • Dexmedetomidine at 0.005 and 0.010 mg/kg • Latrepirdine at 1 and 10 mg/kg • Dexmedetomidine and latrepirdine combinations (in mg/kg): 0.005/1.0; 0.005/10; 0.010/1.0; 0.010/10
Test compounds were injected intraperitoneally (IP) for 15 min before animals were placed in SmartCube for assessment.
Antipsychotic: SmartCube classifies the mouse behavior with test compound as similar to treatment with marketed anti-psychotics at therapeutically relevant doses.
High Dose Antipsychotic: SmartCube classifies the mouse behavior on test compound as similar to treatment with marketed anti-psychotics at doses that are considered as high therapeutically. High doses of anti-psychotics often cause sedation.
The results for the class analyses are presented as standardized bar charts with percentages that sum to 100 for each dose. The percentage indicates the probability the classifier can differentiate between the vehicle group and test group. The pattern indicates what class signature was assigned.

[3] = tested on: Yohimbine-induced noradrenergic hyperarousal in Wistar rats; assay: Elevated plus maze, yohimbine-induced noradrenergic hyperarousal, dose response (Example 3); type: in vivo; conditions: 30 min
Text: Background: Yohimbine is an alpha 2-adrenergic receptor antagonist reported to trigger panic attacks in healthy volunteers and to exacerbate symptoms in patients with panic disorder (Charney et al., 1992 Acta Psychiatr Scand., Vol. 86 (4): 273-282). Peripheral administration of Yohimbine causes noradrenergic mediated hyperarousal in rats as assessed by the EPM paradigm.
Rationale: The drug yohimbine is a natural product used to test a specific pathway, noradrenergic-mediated hyper-arousal. It is well established that yohimbine is an alpha2-adrenergic receptor antagonist and activates the locus coeruleus (LC) and increases noradrenergic signaling (the opposite of alpha2-adrenergic agonists like dexmedetomidine and clonidine). Increased LC activity and noradrenergic signaling makes animals anxious and agitated which can be measured by using the elevated plus maze. In the elevated plus maze, rodents were in the closed arms and explored the open arms depending on their anxiety and agitation (rats and mice normally explore their environments extensively when calm). […] This behavior is correlated to increased level of anxiety caused by noradrenergic mediated hyperarousal.
(§1) Animal groups: Rats were distributed in 9 different experimental groups with 12 […] per group as illustrated in Table 6. Each experimental group was also coded so that the experimenter became unaware of the true experimental group at the time EPM trial.
Acclimatization: Male Wistar rats (Janvier; Le Genest St Isle-France) were used for the study. They were purchased at a body weight of 150 g and reached a body weight of about 220 g at the time of use. They were group-housed (3-4 rats per cage) and maintained in a room with controlled temperature (21-22° C.) and a reversed light-dark cycle (12 h/12 h; lights on: 17:30-05:30; lights off: 05:30-17:30).
Drug preparation: All compounds/drugs were prepared in normal saline (0.9% NaCl).
Yohimbine was prepared at a solution of 2.5 mg/mL which when injected i.p. at a dosage volume of 1 mL/kg results in a dose of 2.5 mg/kg. Diazepam was prepared at a solution of 1 mg/mL which when injected i.p. at a dosage volume of 1 mL/kg results in a dose of 1 mg/kg. Latrepirdine dihydrochloride hydrate was prepared at a solution of 7.5, 2.5, 0.75 and 0.25 mg/mL which when injected i.m. at a volume of 100 μL for a rat of 250 g results in doses of 3; 1; 0.3 and 0.1 mg/kg; respectively. Latrepirdine dihydrochloride hydrate was also prepared at […] which when administrated i.p. at a dosage volume of 1 mL/kg results in a dose of 3 mg/kg.
Experimental procedure: The rats were randomly assigned to one of the different experimental groups. Each animal was identified by its group name, cage number, series (day) of experiment, and a number (from 1 to 9) written with permanent ink on its tail. They were handled by an experimenter for about 3 min each day during 1 week prior to the day of EPM trial. The apparatus was a PVC maze covered with Plexiglas and subdivided into four equal exploratory arms (40×10 cm), which were all interconnected by a small platform (10×10 cm). The apparatus was placed 65 cm above the floor. Two arms were opened, and two others were closed with wall (high: 10 cm). After compound administration, rat was placed on the platform opposite a closed arm. The number of entries and the time spent in each arm were recorded during a 5 min period. The animal was considered as entered in an arm when it placed its four paws in the arm. The apparatus was cleaned between each animal using alcohol (70%). Urine and feces were removed from the maze. During the trials, animal handling and the visibility of the operator were minimized as much as possible.
Statistical analysis: Analysis of variance (ANOVA) was performed on the result data. Fisher's PLSD was used for pairwise comparisons and p value≤0.05 were considered significant. […]

[4] = tested on: CCK-4 induced panic anxiety in rats; assay: Elevated plus maze, CCK-4 induced panic anxiety (Example 8); type: in vivo, Wistar rats; conditions: diazepam 1 mg/kg; CCK4 0.2 mg/kg i.p.
Text: Rationale: In the past two decades panic induction with cholecystokinin-tetrapeptide (CCK-4) as an experimental model of human anxiety has become a focus of intensive research. CCK-4 is a synthetic analog of the endogenous neuropeptide cholecystokinin (CCK), which has been found in different brain regions. Particularly, high concentrations of CCK have been detected in regions that have been implicated in the mediation of panic attacks such as the cerebral cortex, amygdala, hippocampus, and brainstem nuclei. CCK-4 dose dependently induces panic attacks in healthy controls. Thus, CCK-4 has been postulated to fulfil the criteria for an ideal and valid panicogenic agent. […] Therefore, the CCK-4 challenge paradigm can serve as a useful tool to evaluate the anti-panic potential of novel anxiolytic compounds.
as §1, with “groups: Male Wistar” for “groups:”, “Rats were purchased at a body weight of 150 g and reached a body weight of about 220 g at the time of use. Animals” for “Rats”, “6” for “9”, “11.” for “6.”
Study drugs: All compounds/drugs were prepared in saline (0.9% NaCl).
CCK-4 was prepared at a solution of 0.2 mg/ml which when injected i.p. at a dosage volume of 1 ml/kg results in a dose of 0.2 mg/kg.
Diazepam was prepared at a solution of 1 mg/ml which when injected i.p. at a dosage volume of 1 ml/kg results in a dose of 1 mg/kg.
Latrepirdine was prepared at concentrations of 2.5, 7.5, 25 and 37.5 mg/ml which when injected i.m. at a volume of 100 μL for a rat of 250 g results in doses of 1, 3, 10 and 15 mg/kg respectively.
Study design and dosing: The rats were randomly assigned to one of the different experimental groups. Each animal was identified by its group name, cage number, series (day) of experiment, and a number (from 1 to 4) written with permanent ink on its tail. They were handled by an experimenter for about 3 min each day during 1 week prior to the day of EPM trial.
The apparatus is a PVC maze covered with Plexiglas and subdivided into four equal exploratory arms (40×10 cm), which are all interconnected by a small platform (10×10 cm). The apparatus is placed 65 cm above the floor. Two arms are opened, and two others are closed with wall (high: 10 cm).
After compound administration, rat is placed on the platform opposite a closed arm. The number of entries and the time spent in each arm are recorded during a 5 min period. The animal is considered as entered in an arm when it places its four paws in the arm.
Statistical analysis: Data was analyzed using One-Way ANOVA followed by multiple comparison with Dunnett's post-hoc test. All statistical analyses were performed using GraphPad Prism software package (Version 9) and p value below 0.05 was considered as significant.

[5] = diazepam 1 mg/kg, i.p., yohimbine hydrochloride 2.5 mg/kg i.p.

Question: With `CNCCCN1c2ccccc2CCc2ccccc21` [desipramine hydrochloride] as the molecule, how does the climbing time [1] read?
Answer: The climbing time was “increase”.

Question: And the immobility time [1]?
Answer: Its immobility time is “significant decrease”.

Question: And the swimming time [1]?
Answer: Its swimming time is “failed to show any significant effect”.

Question: What does the source list for `Cc1cccc([C@H](C)c2cnc[nH]2)c1C` [dexmedetomidine, (+) 4-(S)-[1-(2,3-dimethylphenyl)ethyl]-1H-imidazole]?
Answer: SmartCube signature ([2]; 0.005 and 0.010 mg/kg): antipsychotic signature; SmartCube total activity ([2]; dexmedetomidine 0.005 mg/kg): 9%; SmartCube total activity ([2]; dexmedetomidine 0.010 mg/kg): 40%

Question: With `COC(=O)[C@@H]1[C@H]2C[C@H]3c4[nH]c5ccccc5c4CCN3C[C@@H]2CC[C@@H]1O` [yohimbine] as the molecule, how does the “number of visits to and time spent into the open arms versus vehicle-treated saline rats” value ([3]; yohimbine 2.5 mg/kg i.p.) read?
Answer: Its value is “marked significant decrease”.

Question: For `CN1C(=O)CN=C(c2ccccc2)c2cc(Cl)ccc21` [Diazepam], which “Percent increase as referred to the Vehicle level, Entries” value [3, 5] is on record?
Answer: Its value is 294%.

Question: And the “Percent increase as referred to the Vehicle level, Time” value [3, 5]?
Answer: The value was 642%.

Question: What about the “Entries, % increase as compared to CCK-4/Vehicle” value [4] of the same molecule?
Answer: Its value is “(400.00) **** %”.

Question: And the “Entries, Mean ± SEM” value [4]?
Answer: Its value is 9.5±0.5 n.

Question: And the “Time, % increase as compared to CCK-4/Vehicle” value [4]?
Answer: The value was “(652.27) **** %”.

Question: What about the “Time, Mean ± SEM” value [4] of the same molecule?
Answer: Its value is 99.3 ± 3.8 s.
